This is an account of results in the supplement of paper PMC10307832.

Experiment in all cases: relative viability (nuclei count vs DMSO), 5 days (fraction); higher = more cells survive
Compound in the test “PAC-1 + Phenformin”: C=CCc1cccc(/C=N/NC(=O)CN2CCN(Cc3ccccc3)CC2)c1O [PAC-1] + N=C(N)NC(=N)NCCc1ccccc1 [Phenformin] (partner 250 µM)
Summed up:
(§1)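 Lung cancer cell lines in 1536-well plates got either a single drug or a fixed anchor-drug dose together with five library-drug doses (not always all listed) in √10 steps, by pin tool, on the day after seeding. Nuclei were counted after 5 days, and relative viability is the treated-to-vehicle ratio of nuclei counts. Values are medians of duplicate plates.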

Compound in the test “BMX-IN-1 + Palbociclib”: C=CC(=O)Nc1cc(-n2c(=O)ccc3cnc4ccc(-c5ccc(NS(C)(=O)=O)cc5)cc4c32)ccc1C [BMX-IN-1] + CC(=O)c1c(C)c2cnc(Nc3ccc(N4CCNCC4)cn3)nc2n(C2CCCC2)c1=O [Palbociclib] (partner 0.5 µM)
The method, boiled down:
as §1

Compound in the test “Ibrutinib + Pictilisib”: C=CC(=O)N1CCC[C@@H](n2nc(-c3ccc(Oc4ccccc4)cc3)c3c(N)ncnc32)C1 [Ibrutinib] + CS(=O)(=O)N1CCN(Cc2cc3nc(-c4cccc5[nH]ncc45)nc(N4CCOCC4)c3s2)CC1 [Pictilisib] (partner 1 µM)
The method, boiled down:
as §1

Compound in the test “Ibrutinib + Decitabine”: C=CC(=O)N1CCC[C@@H](n2nc(-c3ccc(Oc4ccccc4)cc3)c3c(N)ncnc32)C1 [Ibrutinib] + Nc1ncn([C@H]2C[C@H](O)[C@@H](CO)O2)c(=O)n1 [Decitabine] (partner 2 µM)
The method, boiled down:
as §1

Turning to SK-MES-1, the relative viability turned out to be 0.638 with PAC-1 + Phenformin (first compound 0.02 µM); 0.661 with PAC-1 + Phenformin (first compound 0.06325 µM); 0.381 with PAC-1 + Phenformin (first compound 0.2 µM); 0.645 in the test with PAC-1 + Phenformin (first compound 2 µM); 0.303 with BMX-IN-1 + Palbociclib (first compound 0.02 µM); 0.333 with BMX-IN-1 + Palbociclib (first compound 0.2 µM). The relative viability in the test with BMX-IN-1 + Palbociclib (first compound 0.6325 µM) is 0.355; in the test with BMX-IN-1 + Palbociclib (first compound 2 µM), 0.271; with Ibrutinib + Pictilisib (first compound 0.005 µM) it was 0.307; with Ibrutinib + Pictilisib (first compound 0.01581 µM), 0.274; in the test with Ibrutinib + Pictilisib (first compound 0.05 µM), 0.254; with Ibrutinib + Pictilisib (first compound 0.1581 µM) it was 0.342. Also, the relative viability amounted to 0.198 with Ibrutinib + Pictilisib (first compound 0.5 µM); 0.39 with Ibrutinib + Decitabine (first compound 0.005 µM); 0.359 with Ibrutinib + Decitabine (first compound 0.01581 µM); 0.335 with Ibrutinib + Decitabine (first compound 0.05 µM); 0.364 with Ibrutinib + Decitabine (first compound 0.1581 µM); 0.359 with Ibrutinib + Decitabine (first compound 0.5 µM).
